# Read-outs that look alike come from different tables or passages of the source.
# Assays:
# HeLa cells [1] = assay: Pilot cell viability bioassay, saponin + 1.5 pM dianthin-EGF, 72 h; type: cell-based; conditions: 10 microgram/ml saponin + […] dianthin-EGF
# Method: HeLa cells were incubated for 72 h with the following constructs and cell viability before and after the 72 h-incubation was assessed. In the experiments, cells were exposed to 1.5 pM dianthin-EGF conjugate. A negative control were cells incubated with buffer vehicle and 10 microgram/ml saponin, without dianthin-EGF. Cell viability was set to 100% for the control in which both saponin and EGF-dianthin were omitted. […] Cell viability after 72 h was essentially 0%. For the chemically modified saponin variants, 10 microgram/ml saponin was tested in combination with 1.5 pM dianthin-EGF.
# [2] = test system: EGFR expressing cells (HeLa); assay: cells; conditions: Homo sapiens, HeLa, read-out: IC50 endosomal escape enhancing activity, in HeLa or A431, + 5 pM EGF-dianthin, summary range
# HeLa cells [3] = assay: cells; conditions: for cytotoxicity compared with unmodified saponin: comparison in words; for IC50: Homo sapiens, HeLa
# human red blood cells = assay: cells; conditions: for hemolytic activity compared with unmodified saponin: comparison in words
# Method: Red blood cells (RBCs) were isolated from a buffy coat using a Ficoll gradient. The obtained RBC pellet (˜4-5 ml) was washed 2× with 50 ml DPBS (without Ca^2+/Mg^2+, PAN-Biotech GmbH). Cells were pelleted by centrifugation for 10 min, 800×g at RT. RBC were counted and resuspended at 500.000.000 c/ml in DPBS (without Ca^2+/Mg^2+), based on total cell count.
# Saponin dilutions were prepared in DPBS (with Ca^2+/Mg^2+, PAN-Biotech GmbH), at 1.11×final strength. For positive lysis control a 0.02% Triton-X100 solution was prepared in DPBS^+/+. Of all compound solutions 135 μl was dispensed/well in a 96 well V-bottom plate. To this 15 μl RBC suspension was added and mixed shortly (10 sec-600 rpm). The plate was incubated 30 min at RT, with gentle agitation. Afterwards the plate was spun for 10 min at 800×g to pellet the RBC and 100-120 μl supernatant was transferred to a standard 96 wp (96 well-plate).
# [4] = Critical micellar concentration (ANS fluorescence); type: physicochemical; conditions: for CMC compared with native (underivatised) saponin: comparison in words
# Method: The critical micellar concentration (CMC) of saponins derived from Saponaria officinalis (SO) (Table A7) and derived from Quillaja saponaria (QS) (Table A8, and Table A9) was determined by the method of DeVendittis et al. (A fluorimetric method for the estimation of the critical micelle concentration of surfactants, Analytical Biochemistry, Volume 115, Issue 2, August 1981, Pages 278-286) as follows:
# The emission spectrum of 8-Anilinonaphthalene-1-sulfonic acid (ANS) in either purified water (MQ) or PBS (Dulbecco's PBS+/+) was determined at dry weight concentrations of saponins ranging from 1 to 1400 μM to cover the range below and above the CMC. Above the CMC, the fluorescence yield of ANS increases and the wavelength of maximum emission decreases due to portioning of the fluorescent dye into micelles. Fluorescence yields were recorded on a Fluoroskan Ascent FL (Thermo Scientific) at an excitation wavelength of 355 nm, and an emission wavelength of 460 nm. 6 μg at a concentration of 75.86 μM of ANS were used per sample and measurement.
# [5] = test system: EGFR expressing cells (A431); assay: Cell viability assay (MTS): saponin titrated on fixed 10 pM targeted toxin; type: cell-based; conditions: without targeted toxin
# HSP27 mRNA in A431 cells = assay: HSP27 mRNA gene silencing analysis; type: cell-based; conditions: A431, without oligonucleotide
# Excerpt: (§1) RNA from cells was isolated and analysed according to standard protocols (Biorad). qPCR primers that were used are indicated in Table A10.
# HeLa (EGFR+) cells = conditions: saponin as single compound
# Method: To extend this test, saponins from other sources were analyzed. A saponin purified from a root extract of Gypsophila elegans M. Bieb. […] FIG. 63C).
# A431 (EGFR++) cells = assay: Cell viability, saponin derivative with or without […] EGFdianthin; conditions: A431, saponin as single compound
# A2058 (EGFR−) cells = assay: as above; conditions: A2058, saponin as single compound
# [6] = test system: HSP27 mRNA in SK-BR-3 cells; assay: HSP27 mRNA gene silencing analysis; type: cell-based; conditions: with and without SO1861-Ald-EMCH, SK-BR-3 (FIG. 58)
# Excerpt: as §1
# A431 cells = type: cell-based; conditions: A431, Table A6; read-out: IC50 nM (Toxicity)
compound,measurement,setting,value
CC(=O)OC1C(C)OC(OC2C(C)OC(OC(=O)[C@]34CCC(C)(C)CC3C3=CCC5[C@@]6(C)CC[C@H](OC7OC(C(=O)O)C(O)C(OC8OCC(O)C(O)C8O)C7OC7OC(CO)C(O)C(O)C7O)[C@@](C)(/C=N/NC(=O)CCCCCN7C(=O)C=CC7=O)C6CC[C@@]5(C)[C@]3(C)C[C@H]4O)C(OC3OC(C)C(OC4OCC(O)C(OC5OC(CO)C(O)C(O)C5O)C4O)C(O)C3O)C2O)C(O)C1OC1OCC(O)C(O)C1O (stereo partly drawn) [SO1861-Ald-EMCH],Cell viability after 72 h,HeLa cells [1],reduced cell viability
same,IC50,[2],0.6 to 2 µM
same,cytotoxicity compared with unmodified saponin,HeLa cells [3],less cytotoxic
same,hemolytic activity compared with unmodified saponin,human red blood cells,less hemolytically active
same,CMC,"[4]; PBS (Tables A7, A9)",> 800 µM
same,CMC compared with native (underivatised) saponin,[4],higher CMC values
same,cell killing activity of saponin alone,[5],no cell killing activity
same,HSP27 gene silencing activity of saponin derivative alone,HSP27 mRNA in A431 cells,no HSP27 gene silencing activity
same,general toxicity in absence of EGFdianthin,HeLa (EGFR+) cells,> 25.000 nM
same,general toxicity in absence of EGFdianthin,A431 (EGFR++) cells,> 25.000 nM
same,general toxicity in absence of EGFdianthin,A2058 (EGFR−) cells,> 25.000 nM
"CC(=O)OC1C(C)OC(OC2C(C)OC(OC(=O)[C@]34CCC(C)(C)CC3C3=CCC5[C@@]6(C)CC[C@H](OC7OC(C(=O)O)C(O)C(OC8OCC(O)C(O)C8O)C7OC7OC(CO)C(O)C(O)C7O)[C@@](C)(C=O)C6CC[C@@]5(C)[C@]3(C)C[C@H]4O)C(OC3OC(C)C(OC4OCC(O)C(OC5OCC(O)C(O)C5O)C4O)C(O)C3O)C2O)C(O)C1OC(C)=O (stereo partly drawn) [GE1741, reference compound]",general toxicity in absence of EGFdianthin,HeLa (EGFR+) cells,5.000 nM
"CC(=O)OC1C(C)OC(OC2C(C)OC(OC(=O)[C@]34CCC(C)(C)CC3C3=CCC5[C@@]6(C)CC[C@H](OC7OC(C(=O)O)C(O)C(OC8OCC(O)C(O)C8O)C7OC7OC(CO)C(O)C(O)C7O)[C@@](C)(C=O)C6CC[C@@]5(C)[C@]3(C)C[C@H]4O)C(OC3OC(C)C(OC4OCC(O)C(OC5OC(CO)C(O)C(O)C5O)C4O)C(O)C3O)C2O)C(O)C1OC1OCC(O)C(O)C1O (stereo partly drawn) [SO1861, reference compound]",Cell viability after 72 h,HeLa cells [1],~0%
same,CMC,"[4]; PBS (Tables A7, A9)",185 µM
same,cell killing activity of saponin alone,[5],no cell killing activity
same,general toxicity in absence of EGFdianthin,HeLa (EGFR+) cells,strong cell viability reduction
same,general toxicity in absence of EGFdianthin,A431 (EGFR++) cells,strong cell viability reduction
same,general toxicity in absence of EGFdianthin,A2058 (EGFR−) cells,strong cell viability reduction
CC(=O)OC1C(C)OC(OC2C(C)OC(OC(=O)C34CCC(C)(C)CC3C3=CCC5C6(C)CCC(OC7OC(C(=O)O)C(O)C(OC8OCC(O)C(O)C8O)C7OC7OC(CO)C(O)C(O)C7O)C(C)(C=NNC(=O)CCOCCOCCOCCOCCN=[N+]=[N-])C6CCC5(C)C3(C)CC4O)C(OC3OC(C)C(OC4OCC(O)C(OC5OC(CO)C(O)C(O)C5O)C4O)C(O)C3O)C2O)C(O)C1OC1OCC(O)C(O)C1O (stereo not drawn),general toxicity in absence of EGFdianthin,HeLa (EGFR+) cells,above 10.000 nM
same,general toxicity in absence of EGFdianthin,A431 (EGFR++) cells,above 10.000 nM
"HSP27LNA: HSP27 LNA oligo 5′-ggcacagccagtggcg-3′ (GGCACAGCCAGTGGCG; LNA-modified, pattern not given here)",endosomal escape/gene silencing enhancement factor compared with HSP27BNA,[6],comparable
CC(=O)OC1C(C)OC(OC2C(C)OC(OC(=O)[C@]34CCC(C)(C)CC3C3=CCC5[C@@]6(C)CC[C@H](OC7OC(C(=O)O)C(O)C(OC8OCC(O)C(O)C8O)C7OC7OC(CO)C(O)C(O)C7O)[C@@](C)(/C=N/NC(=O)CCCCCN7C(=O)C[C@H](SCCO)C7=O)C6CC[C@@]5(C)[C@]3(C)C[C@H]4O)C(OC3OC(C)C(OC4OCC(O)C(OC5OC(CO)C(O)C(O)C5O)C4O)C(O)C3O)C2O)C(O)C1OC1OCC(O)C(O)C1O (stereo partly drawn) [SO1861-Ald-EMCH-blocked],IC50,[2],0.6 to 2 µM
same,IC50,HeLa cells [3]; read-out: IC50 nM (Toxicity),> 100000 nM
same,IC50,HeLa cells [3]; read-out: IC50 toxicity,> 100000 nM
same,cytotoxicity compared with unmodified saponin,HeLa cells [3],less cytotoxic
same,IC50,"human red blood cells; Homo sapiens, Erythrocyte, read-out: IC50 nM (hemolysis)",300000 nM
same,IC50,"human red blood cells; Homo sapiens, Erythrocyte, read-out: IC50 hemolytic activity",300000 nM
same,hemolytic activity compared with unmodified saponin,human red blood cells,less hemolytically active
same,IC50,"human red blood cells; read-out: IC50 nM (hemolysis), red blood cells, Table A6",300000 nM
same,CMC,"[4]; SO saponins, determined in PBS, Table A7",50 ± 5 µM
same,CMC compared with native (underivatised) saponin,[4],lower CMC values
CC(=O)OC1C(C)OC(OC2C(C)OC(OC(=O)[C@]34CCC(C)(C)CC3C3=CCC5[C@@]6(C)CC[C@H](OC7OC(C(=O)NCCN8C(=O)C=CC8=O)C(O)C(OC8OCC(O)C(O)C8O)C7OC7OC(CO)C(O)C(O)C7O)[C@@](C)(C=O)C6CC[C@@]5(C)[C@]3(C)C[C@H]4O)C(OC3OC(C)C(OC4OCC(O)C(OC5OC(CO)C(O)C(O)C5O)C4O)C(O)C3O)C2O)C(O)C1OC1OCC(O)C(O)C1O (stereo partly drawn) [SO1861-Glu-AEM],IC50,A431 cells,> 100000 nM
same,CMC compared with native (underivatised) saponin,[4],lower CMC values

# Reference: patent US20230357310A1, “Saponin derivatives with improved therapeutic window” (priority 2019, published 2023)
